Test results: PubChem BioAssay AID2060908 (Molecular Pharmacology Branch, DTP, NCI, 2025)
Blank lines part the entries; values can stand above or below the compound they belong to.

Tested on: 186277-243-T-J2-PDC complex spheroids, viability
Assay: Anticancer human tumor 186277-243-T-J2-PDC patient-derived colon adenocarcinoma cell line growth inhibition [RAS]
Details: for IC50: curve of first compound; for viability, T/C: stronger effect = lower value
Excerpt: RAS pathway inhibitors in Combinations in Complex Spheroids
A high-throughput screen of multi-cell type tumor spheroids was designed to identify active combinations of RAS pathway inhibitors and targeted small molecules. Complex spheroids include a stromal component modeled by human endothelial cells (HUVEC) and fibroblasts modeled by human mesenchymal stem cells (MSCs). The concentration ranges selected for each drug and investigational agent were based upon clinically achievable concentrations if the clinical Cmax of the agent was known.
Compounds. The drugs and investigational agents: abemaciclib (NSC768073), cobimetinib (NSC768068), divarasib (GDC6063, NSC841802), docetaxel (NSC628503), GDC-1971 (RLY-1971, NSC841576), gemcitabine (NSC613327), inavolisib (NSC800729), ipatasertib (NSC767898), KB-0742 (NSC834161), MRTX-1133 (NSC836407), osimertinib (NSC779217), RMC-4630 (NSC839698), RMC-6236 (NSC851965), RMC-6291 (NSC852671), Ro-3306 (NSC812927), sapanisertib (NSC764658), SN-38 (NSC673596), staurosporine (NSC755774), SY5609 (NSC837396), and tovorafenib (DAY101, NSC766906), were obtained from the National Cancer Institute (NCI) Developmental Therapeutics Program Chemical Repository. The FDA-approved anticancer drug set is available from the NCI Developmental Therapeutics Program. […] The stock solutions were prepared in dimethyl sulfoxide (DMSO, Sigma-Aldrich, St. Louis, MO, cat. D2650) at 800-fold the tested concentration and stored at -70 degrees C prior to their use. All drugs and investigational agents were tested over a range starting from a high concentration at or near the clinical Cmax and decreasing in half-log increments. If the clinical Cmax for an agent had not been determined, the highest concentration tested was 10 microM.
Cell Culture. All cells were maintained in an incubator at 37 degrees C and 5% CO2 with 95% humidity. The PDC lines were cultured according to standard operating procedures established by the NCI PDMR. All PDCs were thawed and cultured in Matrigel-coated flasks prepared with a working solution of 1X Ham's F-12 nutrient mix, without supplementation (Invitrogen, Waltham, MA, cat. 11765054), 100 U/mL penicillin-streptomycin (Invitrogen, cat. 15140122), and 2.5% Matrigel (Corning Inc., Corning, NY, cat. 354248) for the first three passages. The 362531-283-R-J2-PDC and 782815-120-R-J1-PDC lines were cultured in 6C/Colon 1B media, which includes advanced DMEM/F-12 (Thermo Fisher Scientific, cat. 12634028), 10 mM HEPES (Thermo Fisher Scientific, cat. 15630080), 1X GlutaMAX supplement (Thermo Fisher Scientific, cat. 35050061), 0.1 mg/mL primocin (InvivoGen, San Diego, CA, cat. ant-pm-2), 10% defined fetal bovine serum, heat inactivated (HyClone Laboratories Inc., Logan, UT, cat. SH30070.03HI), 50% L-WRN conditioned media (ATCC, cat. CRL-3276), 1.25 mM N-Acetyl-L-cysteine (Sigma-Aldrich, cat. A9165), 10 mM nicotinamide (Sigma-Aldrich, cat. N0636), 1X B-27 supplement (Thermo Fisher Scientific, cat. 17504044), 1X N-2 supplement (Thermo Fisher Scientific, cat. 17502048), 50 ng/mL human EGF (Thermo Fisher Scientific, cat. PHG0311), and 10 microM Y-27632 dihydrochloride (Tocris Bioscience, cat. 1254). The K12877-001-R-J1-PDC line was cultured in 6I media, which includes all 6C/Colon 1B media plus 10 ng/mL human FGF-10 (PeproTech, cat. 100-26), 1 ng/mL human FGF-2 (PeproTech, cat. 100-18B), 1 µM prostaglandin E2 (Tocris Bioscience, cat. 2296), […] hydrocortisone (Sigma-Aldrich, cat. H4001), and […] bovine insulin (Sigma-Aldrich, cat. I6634). The K86415-001-R-J1-PDC line was cultured in 6D media, which includes all 6C/Colon 1B media components minus the L-WRN conditioned media. The 485176-168-R4-J1-PDC was cultured in PANC media, which includes all 6C/Colon 1B media plus 100 ng/mL human FGF-10 (PeproTech, cat. 100-26), 500 nM SB-431542 (Selleckchem, cat. S1067), and 10 nM gastrin (Tocris Bioscience, cat. 3006). […]
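Further: spheroids exposed to compounds for 7 days before viability read.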

IC50 (second compound 0.00316 µM): 1.68 µM
IC50 (second compound 0.01 µM): 3.22 µM
IC50 (second compound 0.0316 µM): 2.7 µM
IC50 (second compound 0.1 µM): 2.04 µM
IC50 (second compound 0.316 µM): 2.53 µM
IC50 (second compound 1 µM): 1.91 µM
SMILES: CC(C)NCC(C(=O)N1CCN(c2ncnc3c2C(C)CC3O)CC1)c1ccc(Cl)cc1 (centres undefined) + C=CC(=O)N1CCN(c2nc(OCC3CCCN3C)nc3c(F)c(-c4nc(N)cc(C)c4C(F)(F)F)c(Cl)cc23)C(C)C1
viability, T/C (second compound 0.00316 µM, first compound 0.0316 µM): 94.2%
viability, T/C (second compound 0.00316 µM, first compound 0.1 µM): 87%
viability, T/C (second compound 0.00316 µM, first compound 0.316 µM): 113%
viability, T/C (second compound 0.00316 µM, first compound 1 µM): 59.2%
viability, T/C (second compound 0.00316 µM, first compound 3.16 µM): 43.6%
viability, T/C (second compound 0.00316 µM, first compound 10 µM): 34%
viability, T/C (second compound 0.01 µM, first compound 0.0316 µM): 78.7%
viability, T/C (second compound 0.01 µM, first compound 0.1 µM): 100%
viability, T/C (second compound 0.01 µM, first compound 0.316 µM): 101%
viability, T/C (second compound 0.01 µM, first compound 1 µM): 79.4%
viability, T/C (second compound 0.01 µM, first compound 3.16 µM): 51.4%
viability, T/C (second compound 0.01 µM, first compound 10 µM): 33.6%
viability, T/C (second compound 0.0316 µM, first compound 0.0316 µM): 72.3%
viability, T/C (second compound 0.0316 µM, first compound 0.1 µM): 110%
viability, T/C (second compound 0.0316 µM, first compound 0.316 µM): 77.1%
viability, T/C (second compound 0.0316 µM, first compound 1 µM): 87.1%
viability, T/C (second compound 0.0316 µM, first compound 3.16 µM): 44.1%
viability, T/C (second compound 0.0316 µM, first compound 10 µM): 35.2%
viability, T/C (second compound 0.1 µM, first compound 0.0316 µM): 93.2%
viability, T/C (second compound 0.1 µM, first compound 0.1 µM): 85.8%
viability, T/C (second compound 0.1 µM, first compound 0.316 µM): 103%
viability, T/C (second compound 0.1 µM, first compound 1 µM): 63.4%
viability, T/C (second compound 0.1 µM, first compound 3.16 µM): 47.6%
viability, T/C (second compound 0.1 µM, first compound 10 µM): 35.8%
viability, T/C (second compound 0.316 µM, first compound 0.0316 µM): 91.4%
viability, T/C (second compound 0.316 µM, first compound 0.1 µM): 96.3%
viability, T/C (second compound 0.316 µM, first compound 0.316 µM): 89.1%
viability, T/C (second compound 0.316 µM, first compound 1 µM): 62.8%
viability, T/C (second compound 0.316 µM, first compound 3.16 µM): 49.9%
viability, T/C (second compound 0.316 µM, first compound 10 µM): 29.5%
viability, T/C (second compound 1 µM, first compound 0.0316 µM): 107%
viability, T/C (second compound 1 µM, first compound 0.1 µM): 97.7%
viability, T/C (second compound 1 µM, first compound 0.316 µM): 87.5%
viability, T/C (second compound 1 µM, first compound 1 µM): 63.7%
viability, T/C (second compound 1 µM, first compound 3.16 µM): 38.9%
viability, T/C (second compound 1 µM, first compound 10 µM): 25.2%

IC50 (second compound 0.000949 µM): 0.841 µM
IC50 (second compound 0.003 µM): 0.467 µM
IC50 (second compound 0.00949 µM): 0.0692 µM
IC50 (second compound 0.03 µM): < 0.0316 µM
IC50 (second compound 0.0949 µM): < 0.0316 µM
IC50 (second compound 0.3 µM): < 0.0316 µM
SMILES: CC(C)NCC(C(=O)N1CCN(c2ncnc3c2C(C)CC3O)CC1)c1ccc(Cl)cc1 (centres undefined) + CCn1c(-c2cc(N3CCN(C)CC3)cnc2C(C)OC)c2c3cc(ccc31)-c1csc(n1)CC(NC(=O)C1CC1C)C(=O)N1CCCC(N1)C(=O)OCC(C)(C)C2
viability, T/C (second compound 0.000949 µM, first compound 0.0316 µM): 111%
viability, T/C (second compound 0.000949 µM, first compound 0.1 µM): 101%
viability, T/C (second compound 0.000949 µM, first compound 0.316 µM): 74.8%
viability, T/C (second compound 0.000949 µM, first compound 1 µM): 42.8%
viability, T/C (second compound 0.000949 µM, first compound 3.16 µM): 34.8%
viability, T/C (second compound 0.000949 µM, first compound 10 µM): 20.4%
viability, T/C (second compound 0.003 µM, first compound 0.0316 µM): 98.6%
viability, T/C (second compound 0.003 µM, first compound 0.1 µM): 81.6%
viability, T/C (second compound 0.003 µM, first compound 0.316 µM): 58.8%
viability, T/C (second compound 0.003 µM, first compound 1 µM): 33.8%
viability, T/C (second compound 0.003 µM, first compound 3.16 µM): 16.1%
viability, T/C (second compound 0.003 µM, first compound 10 µM): 7.85%
viability, T/C (second compound 0.00949 µM, first compound 0.0316 µM): 51.6%
viability, T/C (second compound 0.00949 µM, first compound 0.1 µM): 51%
viability, T/C (second compound 0.00949 µM, first compound 0.316 µM): 28%
viability, T/C (second compound 0.00949 µM, first compound 1 µM): 11.4%
viability, T/C (second compound 0.00949 µM, first compound 3.16 µM): 4.9%
viability, T/C (second compound 0.00949 µM, first compound 10 µM): 1.96%
viability, T/C (second compound 0.03 µM, first compound 0.0316 µM): 13.1%
viability, T/C (second compound 0.03 µM, first compound 0.1 µM): 15.3%
viability, T/C (second compound 0.03 µM, first compound 0.316 µM): 7.36%
viability, T/C (second compound 0.03 µM, first compound 1 µM): 3.74%
viability, T/C (second compound 0.03 µM, first compound 3.16 µM): 1.65%
viability, T/C (second compound 0.03 µM, first compound 10 µM): 0.66%
viability, T/C (second compound 0.0949 µM, first compound 0.0316 µM): 6.83%
viability, T/C (second compound 0.0949 µM, first compound 0.1 µM): 6.82%
viability, T/C (second compound 0.0949 µM, first compound 0.316 µM): 4.35%
viability, T/C (second compound 0.0949 µM, first compound 1 µM): 2.2%
viability, T/C (second compound 0.0949 µM, first compound 3.16 µM): 1.09%
viability, T/C (second compound 0.0949 µM, first compound 10 µM): 0.38%
viability, T/C (second compound 0.3 µM, first compound 0.0316 µM): 6.18%
viability, T/C (second compound 0.3 µM, first compound 0.1 µM): 5.27%
viability, T/C (second compound 0.3 µM, first compound 0.316 µM): 3.57%
viability, T/C (second compound 0.3 µM, first compound 1 µM): 1.82%
viability, T/C (second compound 0.3 µM, first compound 3.16 µM): 0.88%
viability, T/C (second compound 0.3 µM, first compound 10 µM): 0.37%
